Results taken from patent US20120283216A1, “FUNGICIDAL 2-(BICYCLIC ARYLOXY)CARBOXAMIDES” (priority 2009, published 2012).

What was measured:
Type in all cases: in vivo
Septoria tritici = test: Test B: wheat leaf blotch, preventive spray on wheat seedlings, visual disease rating; settings: preventive spray at 40 ppm, rated after 48 h + 19 days; for pest or weed control at 40 ppm: Zymoseptoria tritici, 504 h, read-out: Test B disease control rating (100 = 100% disease control, 0 = no disease control relative to the controls)
Summary of the method: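 Wheat seedlings were sprayed to run-off with 40 ppm compound (≈800 g/ha) in acetone/water with 250 ppm surfactant, then inoculated with Septoria tritici spores the next day. After 48 h saturated humidity at 20° C and 19 days in a growth chamber at 20° C, disease control was rated visually (0–100% vs controls).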

Botrytis cinerea = test: Test C: tomato botrytis, preventive spray on tomato seedlings, visual disease rating; settings: preventive spray at 40 ppm, rated after 48 h + 3 days; for pest or weed control at 40 ppm: Botrytis cinerea, 120 h, read-out: Test C disease control rating (100 = 100% disease control, 0 = no disease control relative to the controls)
Summary of the method: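 Compounds applied at 40 ppm (≈800 g/ha) in acetone/water with surfactant, sprayed to run-off on tomato seedlings. Inoculated next day with B. cinerea spores; 48 h saturated humidity at 20 °C, then 3 days at 27 °C. Visual rating as % disease control versus untreated controls.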

[1] = test system: Blumeria graminis f. sp. tritici; test: Test A: wheat powdery mildew, preventive spray on wheat seedlings, visual disease rating; settings: preventive spray at 40 ppm, rated 8 days after inoculation; for pest or weed control at 40 ppm: Blumeria graminis, 192 h, read-out: Test A disease control rating (100 = 100% disease control, 0 = no disease control relative to the controls)
Summary of the method: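 Wheat seedlings sprayed to run-off with 40 ppm compound (equivalent to 800 g/ha) in acetone/water with 250 ppm surfactant, then dusted with B. graminis spores next day. Held at 20° C. for 8 days before visual rating, 0–100 scale as % disease control relative to controls.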

SMILES | Test B disease control rating (100 = 100% disease control, 0 = no disease control relative to the controls) (Septoria tritici) [%] | Test C disease control rating (100 = 100% disease control, 0 = no disease control relative to the controls) (Botrytis cinerea) [%] | Test A disease control rating (100 = 100% disease control, 0 = no disease control relative to the controls) [1] [%] | pest or weed control at 40 ppm (Septoria tritici) [%] | pest or weed control at 40 ppm (Botrytis cinerea) [%] | pest or weed control at 40 ppm [1] [%]
CCCOc1ccc2ccc(OC(OC)C(=O)NC(C)(C)C)cc2c1 (stereo not drawn) [Compound 125] | 100 | 98 | 92 | – | – | –
CCC(Oc1cnc2ccc(OC)cc2c1)C(=O)NC(C)(C)COC (stereo not drawn) [Compound 146] | 100 | 99 | 0 | – | – | –
CCOc1ccc2ccc(OC(CC)C(=O)NC(C)(C)C)cc2c1 (stereo not drawn) [Compound 74, N-(1,1-dimethylethyl)-2-[(7-ethoxy-2-naphthalenyl)oxy]butanamide] | – | – | – | 100 | 100 | 100
C#Cc1ccc2ccc(OC(CC)C(=O)NC(C)(C)C#N)cc2c1 (stereo not drawn) [Compound 110, N-(1-cyano-1-methylethyl)-2-[(7-ethynyl-2-naphthalenyl)oxy]butanamide] | – | – | – | 100 | 100 | 100
C#CC(CC)(CC)NC(=O)C(CC)Oc1ccc2ccc(OC)cc2c1 (stereo not drawn) [Compound 86] | 19 | 19 | 0 | – | – | –
C#Cc1ccc2ncc(OC(CC)C(=O)NC(C)(C)C#C)cc2c1 (stereo not drawn) [Compound 151] | 100 | 96 | 99 | – | – | –
CCOC(Oc1ccc2ccc(OC)cc2c1)C(=O)NC(C)(C)C (stereo not drawn) [Compound 114] | – | – | – | 99 | 99 | 90
CCCc1ccc2ccc(OC(CC)C(=O)NC(C)(C)COC)cc2c1 (stereo not drawn) [Compound 143] | 100 | 99 | 98 | – | – | –
CCC(Oc1ccc2ccc(Br)cc2c1)C(=O)NC(C)(C)CSC(C)=O (stereo not drawn) [Compound 28] | 99 | 99 | 91 | – | – | –
COCC(C)(C)NC(=O)C(C)Oc1ccc2ccc(Br)cc2c1 (stereo not drawn) [Compound 24, 2-[(7-bromo-2-naphthalenyl)oxy]-N-(2-methoxy-1,1-dimethylethyl)propanamide] | – | – | – | 100 | 98 | 100
CCC(Oc1ccc2ccc(Br)cc2c1)C(=O)NC(C)(C)C1CO1 (stereo not drawn) [Compound 19] | 60 | 98 | 0 | – | – | –
CCC(Oc1ccc2ccc(C#N)cc2c1)C(=O)NC(C)(C)COC (stereo not drawn) [Compound 21] | 99 | 99 | 91 | – | – | –
CCC(Oc1cnc2ccc(Cl)cc2c1)C(=O)NC(C)(C)C (stereo not drawn) [Compound 40] | – | – | – | 100 | 99 | 92
COCC(C)(C)NC(=O)C(C)Oc1ccc2ccc(C#N)cc2c1 (stereo not drawn) [Compound 25] | 96 | 99 | 47 | – | – | –
CCOCC(C)(C)NC(=O)C(CC)Oc1cnc2ccc(I)cc2c1 (stereo not drawn) [Compound 55] | 99 | 86 | 96 | – | – | –
C#CC1(NC(=O)C(CC)Oc2ccc3ccc(OC)cc3c2)CCCCC1 (stereo not drawn) [Compound 85] | – | – | – | 84 | 99 | 0
COc1ccc2ccc(OC(OC)C(=O)NC(C)(C)C#N)cc2c1 (stereo not drawn) [Compound 81] | 99 | 100 | 0 | – | – | –
COCC(C)(C)NC(=O)C(C)Oc1cnc2ccc(Br)cc2c1 (stereo not drawn) [Compound 60] | 74 | 95 | 0 | – | – | –
C#CC(C)(C)NC(=S)C(CC)Oc1ccc2ccc(OC)cc2c1 (stereo not drawn) [Compound 164] | – | – | – | 97 | 99 | 0
C#CC(C)(C)NC(=O)C(CC)Oc1ccc2ccc(OCC)cc2c1 (stereo not drawn) [Compound 76, N-(1,1-dimethyl-2-propyn-1-yl)-2-[(7-ethoxy-2-naphthalenyl)oxy]butanamide] | – | – | – | 100 | 100 | 100
CCC(Oc1ccc2ccc(Br)cc2c1)C(=O)NC(C)(C)C#N (stereo not drawn) [Compound 1] | 100 | 100 | 91 | – | – | –
CCOC(Oc1ccc2ccc(OC)cc2c1)C(=O)NC(C)(C)CC (stereo not drawn) [Compound 117] | 93 | 98 | 0 | – | – | –
CCC(Oc1cnc2ccc(I)cc2c1)C(=O)NC(C)(C)COC (single isomer, unassigned) [Compound 61] | 100 | 99 | 98 | – | – | –
C#Cc1ccc2ncc(OC(CC)C(=O)NC(C)(C)C)cc2c1 (stereo not drawn) [Compound 149] | 100 | 98 | 100 | – | – | –
CCC(Oc1ccc2ccc(OC(F)F)cc2c1)C(=O)NC(C)(C)C (stereo not drawn) [Compound 5] | – | – | – | 99 | 100 | 99
CCC(Oc1ccc2ccc(OCOC)cc2c1)C(=O)NC(C)(C)C (stereo not drawn) [Compound 71] | 99 | 99 | 81 | – | – | –
CC#Cc1ccc2ncc(OC(OC)C(=O)NC(C)(C)C)cc2c1 (stereo not drawn) [Compound 156, N-(1,1-dimethylethyl)-2-methoxy-2-[[6-(1-propyn-1-yl)-3-quinolinyl]oxy]-acetamide] | – | – | – | 96 | 99 | 98
CCC(Oc1ccc2ccc(Br)cc2c1)C(=O)NC(C)(C)CNC(=O)OC(C)(C)C (stereo not drawn) [Compound 12] | 93 | 0 | 0 | – | – | –
CCC(Oc1ccc2ccc(OC)cc2c1)C(=O)N(C)C(C)(C)C (stereo not drawn) [Compound 166] | – | – | – | 46 | 99 | 0
